Values of other authors in article PMC11373361, “Expanding the inhibitor space of the WWP1 and WWP2 HECT E3 ligases” (Journal of Enzyme Inhibition and Medicinal Chemistry, 2024).

Experiments:
[1] = tested on: WWP2; set-up: method as in PMID 30207403; details: cited from earlier work
[2] = tested on: WWP1; set-up: method as in PMID 31097636; details: cited from earlier work

| SMILES | IC50 [1] [µM] | IC50 [2] [µM] |
| --- | --- | --- |
| COCCn1c2nc(=O)n(-c3ccccc3)c(=O)c-2nc2ccccc21 [NSC-288387] | 2.3 |  |
| CCc1ccc(C=CC(=O)Nc2ccc(C(C)=O)cc2)o1 [Heclin] |  | 6.9 |
